Activity calls are given as the source filed them. The calls are words filed in the database; no cut-off is given here.

For series [1], the target named is Sodium-dependent serotonin transporter (Homo sapiens) (UniProt P31645). Kind of series: SLC6A4/H Eurofins SafetyScreen44 (BI). To be noted: filed as antagonist, Compound concentration 10.0 uM.
In series [2] the target is Gamma-aminobutyric acid receptor subunit alpha-1 (Rattus norvegicus) (UniProt P62813). Kind of series: BZD/CENTR/R Eurofins SafetyScreen44 (BI). To be noted: Compound concentration 10.0 uM.
In series [3] the target is Voltage-dependent L-type calcium channel subunit alpha-1C (dihydropyridine site) (Rattus norvegicus, UniProt P22002). Kind of series: CA+/DHPSI/R Eurofins SafetyScreen44 (BI). More on the design: mode of action inhibitor. To be noted: rat brain, probe [3H](+)PN200-110, compound concentration 10 uM, read-out: % Ctrl.
Series [4] concerns the target D(2) dopamine receptor (Homo sapiens) (UniProt P14416). Kind of series: D2SH_AGON Eurofins SafetyScreen44 (BI). To be noted: filed as agonist, Compound concentration 10.0 uM.
Series [5] has as its target T1, Muscarinic acetylcholine receptor M2 (Homo sapiens) (UniProt P08172).
T1 sequence (whole entry): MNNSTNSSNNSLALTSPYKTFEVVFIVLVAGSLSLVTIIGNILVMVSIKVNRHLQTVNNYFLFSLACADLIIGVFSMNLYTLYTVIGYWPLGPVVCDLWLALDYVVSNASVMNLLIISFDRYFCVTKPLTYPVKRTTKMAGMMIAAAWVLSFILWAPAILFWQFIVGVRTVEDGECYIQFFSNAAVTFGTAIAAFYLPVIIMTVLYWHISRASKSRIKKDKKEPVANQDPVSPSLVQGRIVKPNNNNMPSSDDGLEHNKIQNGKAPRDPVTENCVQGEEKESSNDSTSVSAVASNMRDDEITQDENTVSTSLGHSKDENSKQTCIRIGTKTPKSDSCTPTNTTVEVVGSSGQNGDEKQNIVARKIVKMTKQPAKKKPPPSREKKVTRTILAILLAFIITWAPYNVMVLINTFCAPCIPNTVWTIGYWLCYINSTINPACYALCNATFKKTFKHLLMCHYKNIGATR
Briefly: M2/H Eurofins SafetyScreen44 (BI). To be noted: filed as antagonist, Compound concentration 10.0 uM.

Series [6] has as its target Beta-2 adrenergic receptor (Homo sapiens) (UniProt P07550). Briefly: BETA2/HUM Eurofins SafetyScreen44 (BI). To be noted: filed as antagonist, Compound concentration 10.0 uM.
The target of series [7] is Delta-type opioid receptor (Homo sapiens) (UniProt P41143). Briefly: DELTA2/H Eurofins SafetyScreen44 (BI). To be noted: Compound concentration 10.0 uM.
Series [8] concerns the target Sodium-dependent noradrenaline transporter (Homo sapiens) (UniProt P23975). Briefly: NEUP/H Eurofins SafetyScreen44 (BI). To be noted: Compound concentration 10.0 uM.
The target of series [9] is Sodium-dependent dopamine transporter (Homo sapiens) (UniProt Q01959). Briefly: DATRANS/HUM Eurofins SafetyScreen44 (BI). To be noted: Compound concentration 10.0 uM.
In series [10] the target is Angiotensin-converting enzyme (Homo sapiens) (UniProt P12821). Briefly: ACE(HU_AMTCH400) Eurofins SafetyScreen44 (BI). To be noted: Compound concentration 10.0 uM.
Series [11] concerns the target Kappa-type opioid receptor (Homo sapiens) (UniProt P41145). Briefly: KAPPA(KOP)_HU Eurofins SafetyScreen44 (BI). To be noted: Compound concentration 10.0 uM.
The target of series [12] is D(1A) dopamine receptor (Homo sapiens) (UniProt P21728). Kind of series: D1/H Eurofins SafetyScreen44 (BI). To be noted: filed as antagonist, Compound concentration 10.0 uM.
The target in series [13] is Glutamate receptor ionotropic, NMDA 2A (Rattus norvegicus) (UniProt Q00959). Kind of series: NMDA/R Eurofins SafetyScreen44 (BI). To be noted: Compound concentration 10.0 uM.
In series [14] the target is T2, Thyroid hormone receptor alpha (Rattus norvegicus) (UniProt P63059).
T2 sequence (whole entry): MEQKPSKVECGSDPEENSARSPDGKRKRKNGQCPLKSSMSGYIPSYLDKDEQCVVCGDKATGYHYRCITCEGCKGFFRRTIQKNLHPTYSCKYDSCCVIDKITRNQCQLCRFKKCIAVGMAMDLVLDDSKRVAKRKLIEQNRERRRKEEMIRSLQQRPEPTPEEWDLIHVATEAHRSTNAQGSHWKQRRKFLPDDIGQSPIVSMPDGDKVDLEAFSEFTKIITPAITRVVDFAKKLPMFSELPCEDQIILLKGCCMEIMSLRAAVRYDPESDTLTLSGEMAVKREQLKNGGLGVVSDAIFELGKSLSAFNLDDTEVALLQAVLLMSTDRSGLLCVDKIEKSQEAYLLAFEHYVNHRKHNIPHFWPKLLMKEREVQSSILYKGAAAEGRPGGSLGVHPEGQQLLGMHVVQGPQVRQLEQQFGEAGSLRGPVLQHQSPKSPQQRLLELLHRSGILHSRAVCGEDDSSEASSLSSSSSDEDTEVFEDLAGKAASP
Kind of series: THYROID HORM Eurofins SafetyScreen44 (BI).

The target of series [15] is D(1A) dopamine receptor (Homo sapiens) (UniProt P21728). Briefly: D1/HU Eurofins SafetyScreen44 (BI). To be noted: Compound concentration 10.0 uM.
Series [16] addresses 5-hydroxytryptamine receptor 2B (Homo sapiens) (UniProt P41595). To be noted: Compound concentration 10.0 uM.
Series [17] deals with Voltage-dependent L-type calcium channel subunit alpha-1C (Rattus norvegicus, UniProt P22002). Kind of series: CA+/DILSI/RA Eurofins SafetyScreen44 (BI). To be noted: compound concentration 10 uM, read-out: % Ctrl.
In series [18] the target is Peroxisome proliferator-activated receptor gamma (Homo sapiens) (UniProt P37231). Briefly: PPARG/H AG Eurofins SafetyScreen44 (BI). To be noted: filed as agonist, Compound concentration 10.0 uM.
The target in series [19] is Sodium-dependent dopamine transporter (Homo sapiens) (UniProt Q01959). Briefly: DATRANS/H Eurofins SafetyScreen44 (BI). To be noted: Compound concentration 10.0 uM.
The target of series [20] is B1 bradykinin receptor (Homo sapiens) (UniProt P46663). Kind of series: B1/H Eurofins SafetyScreen44 (BI). To be noted: Compound concentration 10.0 uM.
The target in series [21] is Prostaglandin E2 receptor EP4 subtype (Homo sapiens) (UniProt P35408). Briefly: PEP4_HU Eurofins SafetyScreen44 (BI).
The target in series [22] is Acetylcholine receptor subunit alpha (Homo sapiens) (UniProt P02708). Briefly: NACH/H Eurofins SafetyScreen44 (BI). To be noted: Compound concentration 10.0 uM.
The target in series [23] is D(2) dopamine receptor (Homo sapiens) (UniProt P14416). Briefly: D2S/HU Eurofins SafetyScreen44 (BI). To be noted: Compound concentration 10.0 uM.
Series [24] concerns the target Cysteinyl leukotriene receptor 1 (Homo sapiens) (UniProt Q9Y271). Briefly: CYSLT1_HS Eurofins SafetyScreen44 (BI). To be noted: Compound concentration 10.0 uM.
The target of series [25] is P2Y purinoceptor 1 (Rattus norvegicus) (UniProt P49651). Briefly: P2Y/RAT Eurofins SafetyScreen44 (BI). To be noted: Compound concentration 10.0 uM.
The target in series [26] is Free fatty acid receptor 1 (Homo sapiens, UniProt O14842). Kind of series: FFAR1 biochemical assay.
Free fatty acid receptor 1, sequence (O14842 whole entry): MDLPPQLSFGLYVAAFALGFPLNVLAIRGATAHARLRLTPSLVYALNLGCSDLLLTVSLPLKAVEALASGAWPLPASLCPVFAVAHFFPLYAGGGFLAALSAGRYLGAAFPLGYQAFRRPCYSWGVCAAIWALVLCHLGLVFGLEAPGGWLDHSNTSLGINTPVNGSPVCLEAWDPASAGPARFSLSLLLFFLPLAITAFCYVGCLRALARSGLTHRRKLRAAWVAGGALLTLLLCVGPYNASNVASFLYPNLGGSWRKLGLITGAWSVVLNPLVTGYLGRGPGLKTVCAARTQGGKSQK

Prostaglandin E2 receptor EP4 subtype (Homo sapiens), sequence (P35408 whole entry): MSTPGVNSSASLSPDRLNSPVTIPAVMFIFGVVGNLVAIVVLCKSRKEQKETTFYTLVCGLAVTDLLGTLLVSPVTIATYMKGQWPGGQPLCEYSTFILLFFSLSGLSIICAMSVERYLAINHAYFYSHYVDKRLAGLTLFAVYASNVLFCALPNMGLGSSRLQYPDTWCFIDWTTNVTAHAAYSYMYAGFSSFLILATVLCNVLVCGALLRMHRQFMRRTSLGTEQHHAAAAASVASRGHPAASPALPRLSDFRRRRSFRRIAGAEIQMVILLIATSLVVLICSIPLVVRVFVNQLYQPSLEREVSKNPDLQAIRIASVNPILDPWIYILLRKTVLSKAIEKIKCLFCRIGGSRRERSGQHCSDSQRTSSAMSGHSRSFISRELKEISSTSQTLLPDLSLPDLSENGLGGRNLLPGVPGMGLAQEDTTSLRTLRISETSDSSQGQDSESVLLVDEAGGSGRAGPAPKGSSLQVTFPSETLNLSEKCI
D(1A) dopamine receptor (Homo sapiens), sequence (P21728 whole entry): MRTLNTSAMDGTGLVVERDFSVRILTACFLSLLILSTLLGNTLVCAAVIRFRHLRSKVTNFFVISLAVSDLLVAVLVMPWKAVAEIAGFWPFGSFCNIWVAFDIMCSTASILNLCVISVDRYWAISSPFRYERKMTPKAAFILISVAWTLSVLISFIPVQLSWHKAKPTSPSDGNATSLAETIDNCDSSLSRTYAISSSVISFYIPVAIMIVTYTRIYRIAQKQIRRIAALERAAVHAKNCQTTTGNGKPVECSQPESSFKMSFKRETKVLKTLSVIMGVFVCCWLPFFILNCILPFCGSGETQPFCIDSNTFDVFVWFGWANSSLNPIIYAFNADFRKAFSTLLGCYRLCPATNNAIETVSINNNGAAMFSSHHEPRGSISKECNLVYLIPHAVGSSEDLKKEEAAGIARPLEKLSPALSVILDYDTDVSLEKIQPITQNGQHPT
Sodium-dependent dopamine transporter (Homo sapiens), sequence (Q01959 whole entry): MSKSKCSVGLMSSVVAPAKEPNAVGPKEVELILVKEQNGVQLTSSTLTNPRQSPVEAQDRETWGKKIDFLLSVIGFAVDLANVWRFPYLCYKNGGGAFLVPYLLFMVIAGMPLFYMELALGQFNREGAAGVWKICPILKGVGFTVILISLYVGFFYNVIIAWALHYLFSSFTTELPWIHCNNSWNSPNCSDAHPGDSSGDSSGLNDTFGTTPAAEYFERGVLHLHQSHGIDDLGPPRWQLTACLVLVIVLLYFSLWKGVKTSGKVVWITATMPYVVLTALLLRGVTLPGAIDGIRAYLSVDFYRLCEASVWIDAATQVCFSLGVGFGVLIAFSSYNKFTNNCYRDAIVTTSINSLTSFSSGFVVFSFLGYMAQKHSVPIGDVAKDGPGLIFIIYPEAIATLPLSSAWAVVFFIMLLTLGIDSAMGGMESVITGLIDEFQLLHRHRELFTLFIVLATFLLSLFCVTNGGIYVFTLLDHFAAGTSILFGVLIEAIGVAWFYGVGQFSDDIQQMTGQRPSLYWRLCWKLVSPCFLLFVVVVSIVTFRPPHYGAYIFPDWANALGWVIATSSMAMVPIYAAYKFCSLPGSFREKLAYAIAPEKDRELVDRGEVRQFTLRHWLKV
5-hydroxytryptamine receptor 2B (Homo sapiens), sequence (P41595 whole entry): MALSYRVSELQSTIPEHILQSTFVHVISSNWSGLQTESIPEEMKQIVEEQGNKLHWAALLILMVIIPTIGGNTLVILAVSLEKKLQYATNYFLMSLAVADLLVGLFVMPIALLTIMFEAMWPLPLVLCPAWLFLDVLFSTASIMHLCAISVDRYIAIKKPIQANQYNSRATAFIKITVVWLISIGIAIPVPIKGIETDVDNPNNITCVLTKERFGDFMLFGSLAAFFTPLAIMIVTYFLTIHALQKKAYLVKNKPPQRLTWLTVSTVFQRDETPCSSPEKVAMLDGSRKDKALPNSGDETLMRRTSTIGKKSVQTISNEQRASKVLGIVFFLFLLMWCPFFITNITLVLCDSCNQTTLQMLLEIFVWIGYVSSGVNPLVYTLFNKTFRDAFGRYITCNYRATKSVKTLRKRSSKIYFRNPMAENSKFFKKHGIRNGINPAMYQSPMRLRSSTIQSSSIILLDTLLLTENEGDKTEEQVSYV
D(2) dopamine receptor (Homo sapiens), sequence (P14416 whole entry): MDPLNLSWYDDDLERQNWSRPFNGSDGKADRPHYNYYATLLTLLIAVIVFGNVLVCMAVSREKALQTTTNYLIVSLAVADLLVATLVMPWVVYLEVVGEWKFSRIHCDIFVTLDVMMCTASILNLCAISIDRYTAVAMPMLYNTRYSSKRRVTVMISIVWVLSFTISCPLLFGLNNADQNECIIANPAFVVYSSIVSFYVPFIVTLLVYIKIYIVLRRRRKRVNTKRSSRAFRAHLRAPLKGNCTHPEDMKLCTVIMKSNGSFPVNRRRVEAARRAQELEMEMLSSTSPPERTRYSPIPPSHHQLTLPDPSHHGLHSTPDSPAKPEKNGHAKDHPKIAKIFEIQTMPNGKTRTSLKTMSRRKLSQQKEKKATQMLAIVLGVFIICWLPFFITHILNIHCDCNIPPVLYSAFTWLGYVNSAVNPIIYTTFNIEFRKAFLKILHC
Cysteinyl leukotriene receptor 1 (Homo sapiens), sequence (Q9Y271 whole entry): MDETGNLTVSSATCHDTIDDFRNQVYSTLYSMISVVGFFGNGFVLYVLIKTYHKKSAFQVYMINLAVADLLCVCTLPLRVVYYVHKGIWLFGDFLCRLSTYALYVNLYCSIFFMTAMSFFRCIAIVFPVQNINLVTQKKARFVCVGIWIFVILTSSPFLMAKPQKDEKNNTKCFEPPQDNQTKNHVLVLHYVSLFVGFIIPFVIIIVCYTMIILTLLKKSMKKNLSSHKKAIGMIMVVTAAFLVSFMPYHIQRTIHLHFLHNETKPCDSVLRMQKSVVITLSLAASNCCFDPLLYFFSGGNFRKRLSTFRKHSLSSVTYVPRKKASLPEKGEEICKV
Gamma-aminobutyric acid receptor subunit alpha-1 (Rattus norvegicus), sequence (P62813 whole entry): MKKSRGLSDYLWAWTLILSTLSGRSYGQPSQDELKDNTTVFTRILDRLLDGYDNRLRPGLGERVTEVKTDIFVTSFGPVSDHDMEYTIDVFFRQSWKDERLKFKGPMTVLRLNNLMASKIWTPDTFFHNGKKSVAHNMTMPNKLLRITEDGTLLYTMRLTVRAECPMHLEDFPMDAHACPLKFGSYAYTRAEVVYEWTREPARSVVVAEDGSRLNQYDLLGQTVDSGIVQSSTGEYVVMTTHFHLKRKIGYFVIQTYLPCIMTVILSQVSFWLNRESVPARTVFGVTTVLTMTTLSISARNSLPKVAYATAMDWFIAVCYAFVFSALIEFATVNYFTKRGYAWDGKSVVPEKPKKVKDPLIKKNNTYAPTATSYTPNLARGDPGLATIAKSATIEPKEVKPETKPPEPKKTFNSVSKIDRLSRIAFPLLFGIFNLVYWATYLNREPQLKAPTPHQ
Beta-2 adrenergic receptor (Homo sapiens), sequence (P07550 whole entry, looked up): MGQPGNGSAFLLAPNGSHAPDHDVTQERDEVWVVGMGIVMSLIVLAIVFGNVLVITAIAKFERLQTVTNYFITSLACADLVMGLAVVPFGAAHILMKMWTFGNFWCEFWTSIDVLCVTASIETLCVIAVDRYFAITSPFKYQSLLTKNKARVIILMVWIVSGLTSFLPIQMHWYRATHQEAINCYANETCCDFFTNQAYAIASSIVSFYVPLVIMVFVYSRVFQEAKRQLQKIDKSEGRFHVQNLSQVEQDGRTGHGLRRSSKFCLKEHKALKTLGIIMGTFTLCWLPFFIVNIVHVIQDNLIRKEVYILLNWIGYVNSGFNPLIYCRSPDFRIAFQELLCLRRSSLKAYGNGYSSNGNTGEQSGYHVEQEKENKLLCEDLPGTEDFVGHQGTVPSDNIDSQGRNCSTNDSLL
Sodium-dependent noradrenaline transporter (Homo sapiens), sequence (P23975 whole entry): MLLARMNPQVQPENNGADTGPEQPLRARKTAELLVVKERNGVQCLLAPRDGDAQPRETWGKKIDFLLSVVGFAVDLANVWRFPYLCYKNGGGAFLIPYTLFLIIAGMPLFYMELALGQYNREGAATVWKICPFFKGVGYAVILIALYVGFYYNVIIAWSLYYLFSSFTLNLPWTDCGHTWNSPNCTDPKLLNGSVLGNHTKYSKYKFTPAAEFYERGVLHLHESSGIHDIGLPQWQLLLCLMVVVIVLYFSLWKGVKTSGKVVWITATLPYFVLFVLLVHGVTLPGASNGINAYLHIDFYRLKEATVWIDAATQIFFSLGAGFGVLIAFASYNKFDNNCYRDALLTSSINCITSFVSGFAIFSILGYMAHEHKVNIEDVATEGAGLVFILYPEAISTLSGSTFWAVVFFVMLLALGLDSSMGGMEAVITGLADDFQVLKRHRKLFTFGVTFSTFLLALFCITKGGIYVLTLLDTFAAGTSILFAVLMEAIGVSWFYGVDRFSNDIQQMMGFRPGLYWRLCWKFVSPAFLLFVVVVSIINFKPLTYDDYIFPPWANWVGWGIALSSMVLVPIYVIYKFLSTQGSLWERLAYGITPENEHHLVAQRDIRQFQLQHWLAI
B1 bradykinin receptor (Homo sapiens), sequence (P46663 whole entry): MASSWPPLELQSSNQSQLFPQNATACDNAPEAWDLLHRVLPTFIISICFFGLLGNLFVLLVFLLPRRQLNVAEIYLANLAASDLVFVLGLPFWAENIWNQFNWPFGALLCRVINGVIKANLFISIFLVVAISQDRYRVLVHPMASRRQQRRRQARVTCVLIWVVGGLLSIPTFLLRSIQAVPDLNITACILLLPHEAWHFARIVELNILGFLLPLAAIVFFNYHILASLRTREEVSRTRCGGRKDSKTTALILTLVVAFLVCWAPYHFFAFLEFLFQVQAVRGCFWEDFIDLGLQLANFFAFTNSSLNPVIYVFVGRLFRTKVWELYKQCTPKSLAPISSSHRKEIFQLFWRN

With `COCCCS(=O)(=O)c1cc(C)c(-c2ccc(F)c3c2CC[C@H]3Oc2ccc3c(c2)OC[C@H]3CC(=O)O)c(C)c1`, the residual activity in series [1] is 109%; in series [2], 109%; in series [4], 88%; in series [5] it was 112%; in series [6] it was 99%; in series [7] it was 89%. Further, the residual activity in series [8] is 83%; in [9], 84%; in series [10], 99%; in series [11] it was 96%; in [12], 87%; in series [13] it was 87%. In series [3], the activity at 10 µM is given as 90% (not active).

In the case of `Cc1cc(OCCC(C)(C)O)cc(C)c1-c1ccc(F)c2c1CC[C@H]2Oc1ccc2c(c1)OC[C@H]2CC(=O)O`, the residual activity is 97% in series [14] (Compound concentration 0.3 uM); 95% in series [14] (Compound concentration 1.0 uM); 77% in [14] (Compound concentration 3.0 uM); 39.5% in series [14] (Compound concentration 10.0 uM); 2% in series [14] (Compound concentration 30.0 uM); 81% in series [15]. Also, the residual activity is 8% in series [18]; 68% in [19]; 91% in series [20]; 102% in series [21] (Compound concentration 0.3 uM); 108% in series [21] (Compound concentration 1.0 uM); 92% in series [21] (Compound concentration 3.0 uM). Besides, the residual activity in [21] (Compound concentration 10.0 uM) is 55%; in series [21] (Compound concentration 30.0 uM), 11%; in series [22], 115%; in [23], 100%; in series [24], 31%; in [25], 87%. The inhibition in [16] was 3.41%. Further, the activity at 10 µM in series [17] was 100% (not active). Besides, the Ki in series [26] is 23 nM (active).

In general, inhibition refers to the change of the read-out against control, counted positive when it falls. One may read the Ki as a dissociation constant, usually derived from enzyme kinetics or from competition with a known ligand.

The record behind these values is ChEMBL document CHEMBL5058643, “Data for DCP probe BI-2081” (2022).
